According to publication PMC12040169 (PLOS Biology, 2025):

assay: in vitro; details: human, hela cells, % viability

SMILES	viability at 28.5 h, 10 µM [%]
O=C(CN1CCCCCC1)N/N=C/c1ccc(F)c(Br)c1 [CBK261596]	94.7
O=C(O)CCC(=O)Nc1ccc2c(c1)oc1ccccc12 [CBK261597]	86.3
O=C(N/N=C/c1cc([N+](=O)[O-])ccc1Cl)c1ccc(O)c(O)c1 [CBK261599]	112
CC(=O)Nc1ccc(C(=O)Nc2ccc(S(N)(=O)=O)cc2)cc1 [CBK261600]	95.3
O=[N+]([O-])c1ccc(Cl)c(C2N(Cc3ccccc3)CCN2Cc2ccccc2)c1 [CBK261601]	93.4
Cc1cccc(C(=O)Nc2ccc(-c3nnc(-c4ccc(NC(=O)c5cccc(C)c5)cc4)o3)cc2)c1 [CBK261603]	106
N#CC1=C(N)Oc2cc(N)ccc2C1c1ccc(-c2ccccc2)cc1 (stereo not shown) [CBK261605]	91.3
COc1cccc(C(=O)NNC(=O)Nc2ccccc2)c1 [CBK261608]	91.8
CCOC(=O)c1c(C)n(-c2ccc(OC)cc2)c2ccc(O)c(CN(C)C)c12 [CBK261609C]	88
CC(C)CC(C(=O)O)N1C(=O)/C(=C2/C(=O)Nc3ccc(Br)cc32)SC1=S (stereo not shown) [CBK261610]	84.7
O=C(Nc1ccc(-c2nc3cc(-c4nc5cc(NC(=O)c6cccs6)ccc5[nH]4)ccc3[nH]2)cc1)c1cccs1 [CBK261614]	97.6
CCN1CCN(CC(=O)N/N=C/c2ccc(F)cc2)CC1 [CBK261615]	108
CC(=O)Nc1ccc(/C=N/NC(=O)CN2CCCCCCC2)cc1 [CBK261617]	88.8
N#Cc1c(NC(=O)CN2CCCCC2)sc2c1CCCC2 [CBK261619]	89.6
O=P(O)(COc1ccccc1)COc1ccccc1 [CBK261620]	88.8
COC(=O)C1=C(C(=O)OC)SC(=C2C(=S)C(C)(C)N(C(=O)c3ccc4ccccc4c3)c3cc(C)ccc32)S1 [CBK261622]	116
O=C1/C(=C/NNc2nc3ccccc3s2)Sc2ccccc21 [CBK261627]	96.4

SMILES	viability at 28.5 h, 10 µM [%]
Oc1c(-c2ccc(Cl)cc2)c2nc3ccccc3nc2c2ccccc12 [CBK261628]	87.7
Oc1ccc(Br)cc1/C=N/c1ccc(-c2cc(-c3ccc(/N=C/c4cc(Br)ccc4O)cc3)ncn2)cc1 [CBK261630]	115
Cc1ccccc1NC(=O)/C(=C\c1cccnc1)NC(=O)c1ccccc1 [CBK261632]	93.9
Cc1nc2ccccn2c1-c1csc(Nc2ccc(C(=O)O)cc2)n1 [CBK261634B]	74.4
O=[N+]([O-])c1ccc(-c2ccc(/N=C/c3ccco3)cc2)cc1 [CBK261639]	92.2
O=C(N/N=C/c1ccccc1)c1ccccn1 [CBK261640]	92.8
Cc1cccc2cc(/C=C(\C#N)c3nc(-c4cc5ccccc5oc4=O)cs3)c(Cl)nc12 [CBK261642]	85.4
CCOC(=O)C1=C(C(=O)OCC)SC(=C2C(=S)C(C)(C)N(C(=O)c3ccc4ccccc4c3)c3ccccc32)S1 [CBK261643]	103
Nc1cccc(Oc2ccc(C(c3ccc(Oc4cccc(N)c4)cc3)(C(F)(F)F)C(F)(F)F)cc2)c1 [CBK261645]	103
O=C1/C(=C\Nc2cccc3cccnc23)Sc2ccccc21 [CBK261647]	93.8
CC1=CC(C)(C)N(CC(=O)c2ccc([N+](=O)[O-])cc2)c2c(C)cccc21 [CBK261652]	103
Cc1ccc(S(=O)(=O)c2ccc(C)c(S(=O)(=O)NC3CCCCC3)c2)cc1S(=O)(=O)NC1CCCCC1 [CBK261653]	90
N#CC(c1ccc(O)cc1)N1CCOCC1 (stereo not shown) [CBK261659]	116
Oc1c(Cl)cc(Cl)cc1/C=N/c1ccc(-c2nc3ccc(/N=C/c4cc(Cl)cc(Cl)c4O)cc3[nH]2)cc1 [CBK261660]	93.4
C/C(=N\NC(=O)c1cccc(Cl)c1)c1ccccc1O [CBK261665]	81.4
O=C(COC(=O)c1cc(S(=O)(=O)N2CCCCC2)c(Cl)cc1Cl)c1ccccc1 [CBK261668]	101
NNS(=O)(=O)c1ccc(Oc2ccc([N+](=O)[O-])cc2)cc1 [CBK261669]	95.9

same assay, conditions: human, hela cells, % viability, bulk resorufin, single well

SMILES	viability at 28.5 h, 10 µM [%]
Oc1ccc(CN2CCN(c3cccc(Cl)c3)CC2)cc1 [CBK261528]	109
Oc1cccc(CN2CCN(c3cccc(Cl)c3)CC2)c1 [CBK261543]	90.1
COc1ccc(CN2CCN(Cc3ccccc3)CC2)c(OC)c1 [CBK261553]	115
O=C(O)c1cccc(NC(=O)c2cc([N+](=O)[O-])cc([N+](=O)[O-])c2)c1 [CBK261555]	92.8
CCN1CCN(Cc2cc(Br)c(OC)cc2OC)CC1 [CBK261566]	103
O=[N+]([O-])c1ccccc1CN1CCN(c2ccccc2Cl)CC1 [CBK261572]	92
CCOc1ccccc1CN1CCN(C)CC1 [CBK261577]	91
O=C1NC(=O)C(=CNCCc2c[nH]c3ccccc23)C(=O)N1 [CBK261635]	93.2
O=C1NC(=O)N(c2ccc(Cl)cc2)C(=O)/C1=C\NCCCO [CBK261648]	90.2
